# In the supplement of paper PMC10307832:
# Experiments:
# Assay in all cases: relative viability (nuclei count vs DMSO), 5 days (fraction); higher = more cells survive
# [1] = tested on: NCI-H650
# Outline: (§1)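 Relative viability is defined as nuclei in treated wells over nuclei in vehicle wells. Duplicate plates were run and medians reported. Lung cancer cell lines in 1536-well plates were dosed by pin tool one day after seeding, with one drug or with a fixed anchor-drug dose plus five library-drug doses (not always all listed) in √10 steps, and nuclei were counted after 5 days.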
# [2] = tested on: COR-L 105
# Outline: as §1
# [3] = tested on: NCI-H2126
# Outline: as §1
# [4] = tested on: NCI-H2347
# Outline: as §1
# [5] = tested on: NCI-H661
# Outline: as §1
# [6] = tested on: NCI-H520
# Outline: as §1
# [7] = tested on: NCI-H2087
# Outline: as §1
# [8] = tested on: HCC-78
# Outline: as §1
# [9] = tested on: RERF-LC-KJ
# Outline: as §1
# [10] = tested on: NCI-H1915
# Outline: as §1
# [11] = tested on: 201T; conditions: first compound 0.04 µM
# Outline: as §1
compound,measurement,setting,value
Cc1sc2c(c1C)C(c1ccc(Cl)cc1)=N[C@@H](CC(=O)OC(C)(C)C)c1nnc(C)n1-2 [JQ1] + Cc1nc(NC(=O)N2CCC[C@H]2C(N)=O)sc1-c1ccnc(C(C)(C)C(F)(F)F)c1 [Alpelisib] (partner 2 µM),relative viability,[1]; first compound 0.04 µM,1.11
same,relative viability,[1]; first compound 0.1265 µM,0.715
same,relative viability,[1]; first compound 0.4 µM,0.707
same,relative viability,[1]; first compound 1.265 µM,0.377
same,relative viability,[1]; first compound 4 µM,0.257
same,relative viability,[2]; first compound 0.04 µM,0.799
same,relative viability,[2]; first compound 0.1265 µM,0.642
same,relative viability,[2]; first compound 0.4 µM,0.421
same,relative viability,[2]; first compound 1.265 µM,0.252
same,relative viability,[2]; first compound 4 µM,0.255
same,relative viability,[3]; first compound 0.04 µM,0.797
same,relative viability,[3]; first compound 0.1265 µM,0.682
same,relative viability,[3]; first compound 0.4 µM,0.681
same,relative viability,[3]; first compound 1.265 µM,0.516
same,relative viability,[3]; first compound 4 µM,0.47
same,relative viability,[4]; first compound 0.04 µM,0.982
same,relative viability,[4]; first compound 0.1265 µM,0.8
same,relative viability,[4]; first compound 0.4 µM,0.848
same,relative viability,[4]; first compound 1.265 µM,0.646
same,relative viability,[4]; first compound 4 µM,0.477
same,relative viability,[5]; first compound 0.04 µM,0.524
same,relative viability,[5]; first compound 0.1265 µM,0.529
same,relative viability,[5]; first compound 0.4 µM,0.71
same,relative viability,[5]; first compound 1.265 µM,0.549
same,relative viability,[5]; first compound 4 µM,0.465
same,relative viability,[6]; first compound 0.04 µM,0.798
same,relative viability,[6]; first compound 0.1265 µM,0.934
same,relative viability,[6]; first compound 0.4 µM,0.667
same,relative viability,[6]; first compound 1.265 µM,0.38
same,relative viability,[6]; first compound 4 µM,0.268
same,relative viability,[7]; first compound 0.04 µM,1.08
same,relative viability,[7]; first compound 0.4 µM,0.811
same,relative viability,[7]; first compound 1.265 µM,0.625
same,relative viability,[7]; first compound 4 µM,0.438
same,relative viability,[8]; first compound 0.04 µM,0.336
same,relative viability,[8]; first compound 0.1265 µM,0.34
same,relative viability,[8]; first compound 0.4 µM,0.281
same,relative viability,[8]; first compound 1.265 µM,0.234
same,relative viability,[8]; first compound 4 µM,0.252
same,relative viability,[9]; first compound 0.04 µM,0.806
same,relative viability,[9]; first compound 0.1265 µM,0.925
same,relative viability,[9]; first compound 0.4 µM,0.793
same,relative viability,[9]; first compound 1.265 µM,0.743
same,relative viability,[9]; first compound 4 µM,0.427
same,relative viability,[10]; first compound 0.04 µM,1.05
same,relative viability,[10]; first compound 0.1265 µM,0.94
same,relative viability,[10]; first compound 0.4 µM,0.982
same,relative viability,[10]; first compound 1.265 µM,0.613
same,relative viability,[10]; first compound 4 µM,0.33
same,relative viability,[11],1.02
